What was measured:
Experiment in all cases: relative viability (nuclei count vs DMSO), 5 days (fraction); higher = more cells survive
AZD5582 + Pemetrexed = compound: C[C@@H](C(=O)N[C@@H](C1CCCCC1)C(=O)N2CCC[C@H]2C(=O)N[C@@H]3[C@@H](CC4=CC=CC=C34)OCC#CC#CCO[C@@H]5CC6=CC=CC=C6[C@@H]5NC(=O)[C@@H]7CCCN7C(=O)[C@H](C8CCCCC8)NC(=O)[C@H](C)NC)NC [AZD5582] + Nc1nc2[nH]cc(CCc3ccc(C(=O)N[C@@H](CCC(=O)O)C(=O)O)cc3)c2c(=O)[nH]1 [Pemetrexed] (partner 0.2 µM)
Procedure, shortened: (§1)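 Relative viability equals treated-well nuclei counts divided by vehicle-well nuclei counts. Counts came from 4× images of lung cancer cell lines grown in 1536-well plates for 5 days after pin-tool dosing on the day after seeding. Dosing used one drug alone or a fixed anchor-drug dose plus five library-drug doses (not always all listed) in √10 steps, and values are medians of duplicate plates.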

[1] = compound: Cn1nnc2c(C(N)=O)ncn2c1=O [Temozolomide] + N=C(N)NC(=N)NCCc1ccccc1 [Phenformin] (partner 250 µM)
Procedure, shortened: as §1

AZD5582 + AZD7762 = compound: C[C@@H](C(=O)N[C@@H](C1CCCCC1)C(=O)N2CCC[C@H]2C(=O)N[C@@H]3[C@@H](CC4=CC=CC=C34)OCC#CC#CCO[C@@H]5CC6=CC=CC=C6[C@@H]5NC(=O)[C@@H]7CCCN7C(=O)[C@H](C8CCCCC8)NC(=O)[C@H](C)NC)NC [AZD5582] + NC(=O)Nc1cc(-c2cccc(F)c2)sc1C(=O)N[C@H]1CCCNC1 [AZD7762] (partner 0.2 µM)
Procedure, shortened: as §1

AZD5582 + Tozasertib = compound: C[C@@H](C(=O)N[C@@H](C1CCCCC1)C(=O)N2CCC[C@H]2C(=O)N[C@@H]3[C@@H](CC4=CC=CC=C34)OCC#CC#CCO[C@@H]5CC6=CC=CC=C6[C@@H]5NC(=O)[C@@H]7CCCN7C(=O)[C@H](C8CCCCC8)NC(=O)[C@H](C)NC)NC [AZD5582] + Cc1cc(Nc2cc(N3CCN(C)CC3)nc(Sc3ccc(NC(=O)C4CC4)cc3)n2)n[nH]1 [Tozasertib] (partner 0.1 µM)
Procedure, shortened: as §1

Cell Line | relative viability (AZD5582 + Pemetrexed; first compound 0.001581 µM) | relative viability (AZD5582 + Pemetrexed; first compound 0.005 µM) | relative viability (AZD5582 + Pemetrexed; first compound 0.01581 µM) | relative viability (AZD5582 + Pemetrexed; first compound 0.05 µM) | relative viability ([1]; first compound 0.2 µM) | relative viability ([1]; first compound 0.6325 µM) | relative viability ([1]; first compound 2 µM) | relative viability ([1]; first compound 6.325 µM) | relative viability ([1]; first compound 20 µM) | relative viability (AZD5582 + AZD7762; first compound 0.001581 µM) | relative viability (AZD5582 + AZD7762; first compound 0.005 µM) | relative viability (AZD5582 + AZD7762; first compound 0.01581 µM) | relative viability (AZD5582 + AZD7762; first compound 0.05 µM) | relative viability (AZD5582 + Tozasertib; first compound 0.001581 µM) | relative viability (AZD5582 + Tozasertib; first compound 0.005 µM) | relative viability (AZD5582 + Tozasertib; first compound 0.01581 µM) | relative viability (AZD5582 + Tozasertib; first compound 0.05 µM)
NCI-H2347 | 0.369 | 0.441 | 0.41 | 0.402 | 0.34 | 0.376 | 0.378 | 0.387 | 0.607 | 0.724 | 0.558 | 0.666 | 0.713 | 0.561 | 0.523 | 0.5 | 0.553
NCI-H2405 | 1.05 | 1.13 | 1.09 | 1.12 | 0.492 | 0.395 | 0.42 | 0.378 | 0.431 | 0.87 | 0.878 | 0.674 | 0.997 | 0.74 | 0.813 | 0.708 | 0.85
NCI-H3122 | 0.165 | 0.152 | 0.197 | 0.116 | 0.394 | 0.378 | 0.385 | 0.376 | 0.369 | 0.899 | 0.988 | 1.01 | 0.306 | 0.157 | 0.178 | 0.477 | 0.121
PC-3 [JPC-3] | 0.824 | 0.957 | 1.03 | 0.519 | 0.411 | 0.475 | 0.5 | 0.469 | 0.347 | 0.706 | 0.617 | 0.73 | 0.423 | 0.775 | 0.909 | 0.804 | 0.42
PC-14 | 0.105 | 0.112 | 0.14 | 0.101 | 0.498 | 0.686 | 0.519 | 0.31 | 0.105 | 0.255 | 0.247 | 0.294 | 0.183 | 0.521 | 0.595 | 0.558 | 0.6
RERF-LC-KJ | 0.154 | 0.235 | 0.457 | 0.289 | 0.444 | 0.466 | 0.442 | 0.41 | 0.427 | 0.2 | 0.414 | 0.855 | 0.491 | – | – | 0.431 | 0.259
SW 900 | 0.366 | 0.466 | 0.486 | 0.435 | 0.754 | 0.671 | 0.556 | 0.464 | 0.718 | 0.539 | 0.491 | 0.544 | 0.31 | 0.481 | 0.365 | 0.722 | 0.468

From the supplement of paper PMC10307832
